Measurements: US20240279236A1, “COMPOUNDS AND METHODS OF TREATING TUBERCULOSIS” (Fimbrion Therapeutics, Inc., priority 2021, published 2024)

Tested on: WT Mtb Erdman strain
Assay: Microplate Alamar Blue Assay (MABA), Mtb growth inhibition
Assay type: cell-based, Mycobacterium tuberculosis
Details: Mycobacterium tuberculosis, ERDMAN, 168 h, Middlebrook 7H9 media, 7 days at 37° C. in 5% CO2

SMILES	IC50 [nM]
Cc1cc2c(NCCCc3ccccc3)nc(CS(C)(=O)=O)nc2s1 [Example 74, 6-methyl-2-((methylsulfonyl)methyl)-N-(3-phenylpropyl)thieno [2,3-d]pyrimidin-4-amine]	> 10000
CSCc1nc(NCCCc2ccccc2)c2cc(C)sc2n1 [Example 75, 6-methyl-2-((methylthio)methyl)-N-(3-phenylpropyl)thieno [2,3-d]pyrimidin-4-amine]	2000
CCSc1nc(NCCCc2ccccc2)c2cc(C)sc2n1 [Example 76, 2-(ethylthio)-6-methyl-N-(3-phenylpropyl)thieno [2,3-d]pyrimidin-4-amine]	92
Cc1cc2c(NCCCc3ccccc3)nc(N(C)C)nc2s1 [Example 77, N2,N2,6-trimethyl-N4-(3-phenylpropyl)thieno [2,3-d]pyrimidine-2,4-diamine]	140
Cc1cc2c(NCCCc3ccccc3)nc(-c3ccncn3)nc2s1 [Example 78, 6-methyl-N-(3-phenylpropyl)-2-(pyrimidin-4-yl)thieno[2,3-d]pyrimidin-4-amine]	160
Cc1cc2c(NCCCc3ccc(OC(F)(F)F)cc3)nc(-c3ccncn3)nc2s1 [Example 79, 6-methyl-2-(pyrimidin-4-yl)-N-(3-(4-(trifluoromethoxy)phenyl)propyl)thieno [2,3-d]pyrimidin-4-amine]	480
CCc1nc(NCCCNc2ccccc2)c2cc(C)sc2n1 [Example 80, N1-(2-ethyl-6-methylthieno[2,3-d]pyrimidin-4-yl)-N3-phenylpropane-1,3-diamine]	470
COCc1nc(NCCCc2ccccc2)c2cc(C)sc2n1 [Example 81, 2-(methoxymethyl)-6-methyl-N-(3-phenylpropyl)thieno [2,3-d]pyrimidin-4-amine]	3000
Cc1cc2c(NCCCc3ccc(OC(F)(F)F)cc3)nc(-c3ccc(F)cc3)nc2s1 [Example 82, 2-(4-fluorophenyl)-6-methyl-N-(3-(4-(trifluoromethoxy)phenyl)propyl)thieno[2,3-d]pyrimidin-4-amine]	1100
Cc1cc2c(NCCCc3ccc(O)cc3)nc(-c3ccc(F)cc3)nc2s1 [Example 83, 4-(3-((2-(4-fluorophenyl)-6-methylthieno[2,3-d]pyrimidin-4-yl)amino)propyl) phenol]	2500
Fc1ccc(-c2nc(N[C@@H]3C[C@H]3c3ccc(F)c(F)c3)c3cc(C(F)(F)F)sc3n2)cc1 [Example 85, N-((1R,2S)-2-(3,4-difluorophenyl)cyclopropyl)-2-(4-fluorophenyl)-6-(trifluoromethyl)thieno [2,3-d]pyrimidin-4-amine]	> 6800
CCc1nc(NCCCc2ccccc2)c2cc(CC)sc2n1 [Example 86, 2,6-diethyl-N-(3-phenylpropyl)thieno [2,3-d]pyrimidin-4-amine]	> 1200
CCCCSc1nc(N[C@@H]2C[C@H]2c2ccc(F)c(F)c2)c2cc(C)sc2n1 [Example 87, 2-(butylthio)-N-((1R,2S)-2-(3,4-difluorophenyl)cyclopropyl)-6-methylthieno[2,3-d]pyrimidin-4-amine]	1500
Cc1cc2c(N[C@@H]3C[C@H]3c3ccc(F)c(F)c3)nc(-c3ccco3)nc2s1 [Example 88, N-((1R,2S)-2-(3,4-difluorophenyl)cyclopropyl)-2-(furan-2-yl)-6-methylthieno[2,3-d]pyrimidin-4-amine]	2200
Cc1cccc(-c2nc(N[C@@H]3C[C@H]3c3ccc(F)c(F)c3)c3cc(C)sc3n2)n1 [Example 89, N-((1R,2S)-2-(3,4-difluorophenyl)cyclopropyl)-6-methyl-2-(6-methylpyridin-2-yl)thieno[2,3-d]pyrimidin-4-amine]	> 10000
Cc1cc2c(NCCCc3ccccc3)nc(-c3ccc(Cl)cc3)nc2s1 [Example 90, 2-(4-chlorophenyl)-6-methyl-N-(3-phenylpropyl)thieno [2,3-d]pyrimidin-4-amine]	2000

SMILES	IC50 [nM]
Cc1cc2c(NCCCc3ccccc3)nc(-c3cccc(Cl)c3)nc2s1 [Example 91, 2-(3-chlorophenyl)-6-methyl-N-(3-phenylpropyl)thieno [2,3-d]pyrimidin-4-amine]	5900
Cc1cc2c(NCCCc3ccccc3)nc(-c3ccc(N(C)C)cc3)nc2s1 [Example 92, 2-(4-(dimethylamino)phenyl)-6-methyl-N-(3-phenylpropyl)thieno [2,3-d]pyrimidin-4-amine]	2700
Cc1cc2c(NCCCc3ccccc3)nc(C3CCCC3)nc2s1 [Example 94, 2-cyclopentyl-6-methyl-N-(3-phenylpropyl)thieno [2,3-d]pyrimidin-4-amine]	930
Cc1cc2c(NCCCc3ccccc3)nc(C3CCCCC3)nc2s1 [Example 95, 2-cyclohexyl-6-methyl-N-(3- |phenylpropyl)thieno [2,3-d]pyrimidin-4-amine]	> 10000
Cc1cc2c(NCCCc3ccccc3)nc(C(N)=O)nc2s1 [Example 96, 6-methyl-4-((3-phenylpropyl)amino) thieno[2,3-d]pyrimidine-2-carboxamide]	130
Cc1cc2c(NCCCc3ccccc3)nc(CC3CC3)nc2s1 [Example 97, 2-(cyclopropyLMethyl)-6-methyl-N-(3. phenylpropyl)thieno [2,3-d]pyrimidin-4-amine]	360
COC(=O)c1nc(NCCCc2ccccc2)c2cc(C)sc2n1 [Example 98, methyl 6-methyl-4-((3-phenylpropyl)amino) thieno[2,3-d]pyrimidine-2-carboxylate]	> 10000
CCc1nc(NCCCc2ccccc2)c2cc(C(F)(F)F)sc2n1 [Example 99, 2-ethyl-N-(3-phenylpropyl)-6-(trifluoromethyl)thieno [2,3-d]pyrimidin-4-amine]	5700
Cc1cc2c(NCCCc3ccccc3)nc(SC(C)C)nc2s1 [Example 100, 2-(isopropylthio)-6-methyl-N-(3-phenylpropyl)thieno [2,3-d]pyrimidin-4-amine]	3200
Cc1cc2c(NCCCc3ccccc3)nc(-c3ccsc3)nc2s1 [Example 101, 6-methyl-N-(3-phenylpropyl)-2-(thiophen-3-yl)thieno[2,3-d]pyrimidin-4-amine]	490
Cc1cc2c(NCCCc3ccccc3)nc(-c3ccoc3)nc2s1 [Example 102, 2-(furan-3-yl)-6-methyl-N-(3-phenylpropyl)thieno [2,3-d]pyrimidin-4-amine]	27
COc1ccc(CCCNc2nc(SC)nc3sc(C)cc23)cc1 [Example 103, N-(3-(4-methoxyphenyl)propyl)-6-methyl-2-(methylthio)thieno[2,3-d]pyrimidin-4-amine]	22
Cc1cc2c(NCCCc3ccccc3)nc(-c3cccnn3)nc2s1 [Example 104, 6-methyl-N-(3-phenylpropyl)-2-(pyridazin-3-yl)thieno[2,3-d]pyrimidin-4-amine]	2000
Cc1cc2c(NCCCc3ccccc3)nc(-c3cnccn3)nc2s1 [Example 105, 6-methyl-N-(3-phenylpropyl)-2-(pyrazin-2-yl)thieno[2,3-d]pyrimidin-4-amine]	2000
Cc1cc2c(NCCCc3ccccc3)nc(C3CCC3)nc2s1 [Example 106, 2-cyclobutyl-6-methyl-N-(3-phenylpropyl)thieno [2,3-d]pyrimidin-4-amine]	490
